Test results from patent publication US20260022143A1, “Cyclic Peptide Inhibitors of IL-23” (JANSSEN PHARMACEUTICA NV, priority 2022, published 2026).
Starred links: 1 amine or outer side, 2 acyl side, 3 side chain; linkers in the order of their positions; H or OH if unused. Positions of bridges follow the written chain, without caps; N, C: chain ends. Non-standard residues stand in square brackets, D forms with d. Residues, ends and D or L forms follow the SMILES beside them. Groups on a side chain read outwards from the residue. *: point of attachment. Me3N+(CH2)2O(CH2)2O(CH2)2CO = C[N+](C)(C)CCOCCOCCC(=O)*; Trp(7-Me) = Cc1cccc2c(C[C@H](N)C(=O)O)c[nH]c12; γGlu = O=C(O)[C@H](CCC(=O)[*:2])N[*:1]; 2Nal = N[C@@H](Cc1ccc2ccccc2c1)C(=O)O; 3Pal = N[C@@H](Cc1cccnc1)C(=O)O; Myristoyl = CCCCCCCCCCCCCC(=O)*; Lys(Me) = CNCCCC[C@H](N)C(=O)O; Pen = CC(C)(S)[C@H](N)C(=O)O; Thp = NC1(C(=O)O)CCOCC1; X3 = C[N+](C)(C)CCCCC*; X76 = N=C(N)NCCOCCOCC*; AEEA = NCCOCCOCC(=O)O; Sar = CNCC(=O)O

Assay: Exposed Polar Surface Area (EPSA)
Format: physicochemical
Settings: SFC on Chirex 3014 column; sample 1 mM DMSO stock; read-out: EPSA
Summary of the method: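 EPSA, in Å^2, is read from SFC retention time through a linear relationship established with eight calibration standards. Separation uses a Chirex 3014 stationary phase, 35 °C, 14 MPa back pressure, and a 5–60% methanol/ammonium formate modifier gradient in CO2.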

| SMILES | EPSA [A^2] |
| --- | --- |
| CCCCCCCCCCCCCC(=O)N[C@@H](CCC(=O)NCCOCCOCC(=O)NCCOCCOCC(=O)NCCCC[C@@H]1NC(=O)[C@@H](NC(=O)[C@@H](CCCCNC(=O)COCCOCCNC(=O)COCCOCCNC(=O)CC[C@H](NC(=O)CCCCCCCCCCCCC)C(=O)O)NC(=O)CCOCCOCC[N+](C)(C)C)C(C)(C)SSC(C)(C)[C@@H](C(=O)N[C@@H](Cc2ccc(OCCCCC[N+](C)(C)C)cc2)C(=O)N[C@@H](Cc2ccc3ccccc3c2)C(=O)NC2(C(=O)N[C@@H](CCCCN(C)C(C)=O)C(=O)N[C@@H](CC(N)=O)C(=O)N[C@@H](Cc3cccnc3)C(=O)N(C)CC(=O)N(C)C)CCOCC2)NC(=O)[C@H](CCCCN(C)C(C)=O)NC(=O)[C@H](Cc2c[nH]c3c(C)cccc23)NC(=O)[C@H]([C@@H](C)O)NC1=O)C(=O)O [compound 381, cPEG3aCO-k(PEG2PEG2gEC14)-Pen(3)-K(PEG2PEG2gEC14)-T-7MeW-K(NMeAc)-Pen(3)-TMAPF-2Nal-THP-K(NMeAc)-N-3Pya-Sar-CON(Me)2] ({Me3N+(CH2)2O(CH2)2O(CH2)2CO}-[dK]([AEEA-AEEA-γGlu-Myristoyl])[Pen]K([AEEA-AEEA-γGlu-Myristoyl])T[Trp(7-Me)][Lys(Me)](Ac)[Pen]Y(X3)[2Nal][Thp][Lys(Me)](Ac)N[3Pal][Sar]-NMe2; disulfide 2-7) | 171 |
| CCCCCCCCCCCCCC(=O)N[C@@H](CCC(=O)NCCOCCOCC(=O)NCCOCCOCC(=O)NCCCC[C@@H]1NC(=O)[C@@H](NC(=O)CCOCCOCC[N+](C)(C)C)C(C)(C)SSC(C)(C)[C@@H](C(=O)N[C@@H](Cc2ccc(OCCCCC[N+](C)(C)C)cc2)C(=O)N[C@@H](Cc2ccc3ccccc3c2)C(=O)NC2(C(=O)N[C@@H](CCCCN(C)C(C)=O)C(=O)N[C@@H](CC(N)=O)C(=O)N[C@@H](Cc3cccnc3)C(=O)N(C)CC(=O)N(C)C)CCOCC2)NC(=O)[C@H](CCCCN(C)C(C)=O)NC(=O)[C@H](Cc2c[nH]c3c(C)cccc23)NC(=O)[C@H]([C@@H](C)O)NC1=O)C(=O)O [compound 388, cPEG3aCO-Pen(3)-K(PEG2PEG2gEC14)-T-7MeW-K(NMeAc)-Pen(3)-TMAPF-2Nal-THP-K(NMeAc)-N-3Pya-Sar-CON(Me)2] ({Me3N+(CH2)2O(CH2)2O(CH2)2CO}-[Pen]K([AEEA-AEEA-γGlu-Myristoyl])T[Trp(7-Me)][Lys(Me)](Ac)[Pen]Y(X3)[2Nal][Thp][Lys(Me)](Ac)N[3Pal][Sar]-NMe2; disulfide 1-6) | 161 |
| CC(=O)N(C)CCCC[C@@H]1NC(=O)[C@H](Cc2c[nH]c3c(C)cccc23)NC(=O)[C@H]([C@@H](C)O)NC(=O)[C@H](CCCCNC(=O)CCOCCOCC[N+](C)(C)C)NC(=O)[C@@H](NC(=O)CCOCCOCC[N+](C)(C)C)C(C)(C)SSC(C)(C)[C@@H](C(=O)N[C@@H](Cc2ccc(OCCCCC[N+](C)(C)C)cc2)C(=O)N[C@@H](Cc2ccc3ccccc3c2)C(=O)NC2(C(=O)N[C@@H](CCCCN(C)C(C)=O)C(=O)N[C@@H](CC(N)=O)C(=O)N[C@@H](Cc3cccnc3)C(=O)N(C)CC(=O)N(C)C)CCOCC2)NC1=O [compound 393, cPEG3aCO-Pen(3)-K(cPEG3a)-T-7MeW-K(NMeAc)-Pen(3)-TMAPF-2Nal-THP-K(NMeAc)-N-3Pya-Sar-CON(Me)2] ({Me3N+(CH2)2O(CH2)2O(CH2)2CO}-[Pen]K(Me3N+(CH2)2O(CH2)2O(CH2)2CO)T[Trp(7-Me)][Lys(Me)](Ac)[Pen]Y(X3)[2Nal][Thp][Lys(Me)](Ac)N[3Pal][Sar]-NMe2; disulfide 1-6) | 144 |
| CCCCCCCCCCCCCC(=O)N[C@@H](CCC(=O)NCCOCCOCC(=O)NCCOCCOCC(=O)NCCCC[C@H](NC(=O)C1(NC(=O)[C@H](Cc2ccc3ccccc3c2)NC(=O)[C@H](Cc2ccc(OCCCCC[N+](C)(C)C)cc2)NC(=O)[C@H]2NC(=O)[C@H](CCCCN(C)C(C)=O)NC(=O)[C@H](Cc3c[nH]c4c(C)cccc34)NC(=O)[C@H]([C@@H](C)O)NC(=O)[C@H](CC(=O)N(C)C)NC(=O)[C@@H](NC(=O)[C@@H](CCCCNC(=O)COCCOCCNC(=O)COCCOCCNC(=O)CC[C@H](NC(=O)CCCCCCCCCCCCC)C(=O)O)NC(=O)CCOCCOCC[N+](C)(C)C)C(C)(C)SSC2(C)C)CCOCC1)C(=O)N[C@@H](CC(N)=O)C(=O)N[C@@H](Cc1cccnc1)C(=O)N(C)CC(=O)N(C)C)C(=O)O [compound 395, cPEG3aCO-k(PEG2PEG2gEC14)-Pen(3)-N(N(Me)2)-T-7MeW-K(NMeAc)-Pen(3)-TMAPF-2Nal-THP-K(PEG2PEG2gEC14)-N-3Pya-Sar-CON(Me)2] ({Me3N+(CH2)2O(CH2)2O(CH2)2CO}-[dK]([AEEA-AEEA-γGlu-Myristoyl])[Pen]D(NMe2)T[Trp(7-Me)][Lys(Me)](Ac)[Pen]Y(X3)[2Nal][Thp]K([AEEA-AEEA-γGlu-Myristoyl])N[3Pal][Sar]-NMe2; disulfide 2-7) | 189 |
| CCCCCCCCCCCCCC(=O)N[C@@H](CCC(=O)NCCOCCOCC(=O)NCCOCCOCC(=O)NCCCC[C@@H]1NC(=O)[C@H](Cc2c[nH]c3c(C)cccc23)NC(=O)[C@H]([C@@H](C)O)NC(=O)[C@H](CCCCNC(=O)COCCOCCNC(=O)COCCOCCNC(=O)CC[C@H](NC(=O)CCCCCCCCCCCCC)C(=O)O)NC(=O)[C@@H](NC(=O)CCOCCOCC[N+](C)(C)C)C(C)(C)SSC(C)(C)[C@@H](C(=O)N[C@@H](Cc2ccc(OCCCCC[N+](C)(C)C)cc2)C(=O)N[C@@H](Cc2ccc3ccccc3c2)C(=O)NC2(C(=O)N[C@@H](CCCCN(C)C(C)=O)C(=O)N[C@@H](CC(N)=O)C(=O)N[C@@H](Cc3cccnc3)C(=O)N(C)CC(=O)N(C)C)CCOCC2)NC1=O)C(=O)O [compound 396, cPEG3aCO-Pen(3)-K(PEG2PEG2gEC14)-T-7MeW-K(PEG2PEG2gEC14)-Pen(3)-TMAPF-2Nal-THP-K(NMeAc)-N-3Pya-Sar-CON(Me)2] ({Me3N+(CH2)2O(CH2)2O(CH2)2CO}-[Pen]K([AEEA-AEEA-γGlu-Myristoyl])T[Trp(7-Me)]K([AEEA-AEEA-γGlu-Myristoyl])[Pen]Y(X3)[2Nal][Thp][Lys(Me)](Ac)N[3Pal][Sar]-NMe2; disulfide 1-6) | 172 |
| CCCCCCCCCCCCCC(=O)N[C@@H](CCC(=O)NCCOCCOCC(=O)NCCOCCOCC(=O)NCCCC[C@@H]1NC(=O)[C@@H](NC(=O)CCOCCOCC[N+](C)(C)C)C(C)(C)SSC(C)(C)[C@@H](C(=O)N[C@@H](Cc2ccc(OCCCCC[N+](C)(C)C)cc2)C(=O)N[C@@H](Cc2ccc3ccccc3c2)C(=O)NC2(C(=O)N[C@@H](CCCCNC(=O)COCCOCCNC(=O)COCCOCCNC(=O)CC[C@H](NC(=O)CCCCCCCCCCCCC)C(=O)O)C(=O)N[C@@H](CC(N)=O)C(=O)N[C@@H](Cc3cccnc3)C(=O)N(C)CC(=O)N(C)C)CCOCC2)NC(=O)[C@H](CCCCN(C)C(C)=O)NC(=O)[C@H](Cc2c[nH]c3c(C)cccc23)NC(=O)[C@H]([C@@H](C)O)NC1=O)C(=O)O [compound 398, cPEG3aCO-Pen(3)-K(PEG2PEG2gEC14)-T-7MeW-K(NMeAc)-Pen(3)-TMAPF-2Nal-THP-K(PEG2PEG2gEC14)-N-3Pya-Sar-CON(Me)2] ({Me3N+(CH2)2O(CH2)2O(CH2)2CO}-[Pen]K([AEEA-AEEA-γGlu-Myristoyl])T[Trp(7-Me)][Lys(Me)](Ac)[Pen]Y(X3)[2Nal][Thp]K([AEEA-AEEA-γGlu-Myristoyl])N[3Pal][Sar]-NMe2; disulfide 1-6) | 168 |
| CCCCCCCCCCCCCC(=O)N[C@@H](CCC(=O)NCCOCCOCC(=O)NCCOCCOCC(=O)NCCCC[C@@H]1NC(=O)[C@H](Cc2c[nH]c3c(C)cccc23)NC(=O)[C@H]([C@@H](C)O)NC(=O)[C@H](CC(=O)N(C)C)NC(=O)[C@@H](NC(=O)CCOCCOCC[N+](C)(C)C)C(C)(C)SSC(C)(C)[C@@H](C(=O)N[C@@H](Cc2ccc(OCCCCC[N+](C)(C)C)cc2)C(=O)N[C@@H](Cc2ccc3ccccc3c2)C(=O)NC2(C(=O)N[C@@H](CCCCN(C)C(C)=O)C(=O)N[C@@H](CC(N)=O)C(=O)N[C@@H](Cc3cccnc3)C(=O)N(C)CC(=O)N(C)C)CCOCC2)NC1=O)C(=O)O [compound 399, cPEG3aCO-Pen(3)-N(N(Me)2)-T-7MeW-K(PEG2PEG2gEC14)-Pen(3)-TMAPF-2Nal-THP-K(NMeAc)-N-3Pya-Sar-CON(Me)2] ({Me3N+(CH2)2O(CH2)2O(CH2)2CO}-[Pen]D(NMe2)T[Trp(7-Me)]K([AEEA-AEEA-γGlu-Myristoyl])[Pen]Y(X3)[2Nal][Thp][Lys(Me)](Ac)N[3Pal][Sar]-NMe2; disulfide 1-6) | 157 |
| CCCCCCCCCCCCCC(=O)N[C@@H](CCC(=O)NCCOCCOCC(=O)NCCOCCOCC(=O)NCCCC[C@H](NC(=O)C1(NC(=O)[C@H](Cc2ccc3ccccc3c2)NC(=O)[C@H](Cc2ccc(OCCCCC[N+](C)(C)C)cc2)NC(=O)[C@H]2NC(=O)[C@H](CCCCN(C)C(C)=O)NC(=O)[C@H](Cc3c[nH]c4c(C)cccc34)NC(=O)[C@H]([C@@H](C)O)NC(=O)[C@H](CC(=O)N(C)C)NC(=O)[C@@H](NC(=O)CCOCCOCC[N+](C)(C)C)C(C)(C)SSC2(C)C)CCOCC1)C(=O)N[C@@H](CC(N)=O)C(=O)N[C@@H](Cc1cccnc1)C(=O)N(C)CC(=O)N(C)C)C(=O)O [compound 402, cPEG3aCO-Pen(3)-N(N(Me)2)-T-7MeW-K(NMeAc)-Pen(3)-TMAPF-2Nal-THP-K(PEG2PEG2gEC14)-N-3Pya-Sar-CON(Me)2] ({Me3N+(CH2)2O(CH2)2O(CH2)2CO}-[Pen]D(NMe2)T[Trp(7-Me)][Lys(Me)](Ac)[Pen]Y(X3)[2Nal][Thp]K([AEEA-AEEA-γGlu-Myristoyl])N[3Pal][Sar]-NMe2; disulfide 1-6) | 156 |
| CC(=O)N(C)CCCC[C@@H]1NC(=O)[C@H](Cc2c[nH]c3c(C)cccc23)NC(=O)[C@H]([C@@H](C)O)NC(=O)[C@H](CC(=O)N(C)C)NC(=O)[C@@H](NC(=O)CCOCCOCC[N+](C)(C)C)C(C)(C)SSC(C)(C)[C@@H](C(=O)N[C@@H](Cc2ccc(OCCOCCOCCNC(=N)N)cc2)C(=O)N[C@@H](Cc2ccc3ccccc3c2)C(=O)NC2(C(=O)N[C@@H](CCCCN(C)C(C)=O)C(=O)N[C@@H](CC(N)=O)C(=O)N[C@@H](Cc3cccnc3)C(=O)N(C)CC(=O)N(C)C)CCOCC2)NC1=O [compound 405, cPEG3aCO-Pen(3)-N(N(Me)2)-T-7MeW-K(NMeAc)-Pen(3)-GPEG3F-2Nal-THP-K(NMeAc)-N-3Pya-Sar-CON(Me)2] ({Me3N+(CH2)2O(CH2)2O(CH2)2CO}-[Pen]D(NMe2)T[Trp(7-Me)][Lys(Me)](Ac)[Pen]Y(X76)[2Nal][Thp][Lys(Me)](Ac)N[3Pal][Sar]-NMe2; disulfide 1-6) | 157 |
